Test results reported in patent US4738979A, “α2 -blocking derivatives of imidazole” (G. D. Searle & Co., priority 1985, dated 1988).
“Also recorded” adds a separate entry of the source. Where two headings read alike, the source gives them in different places.

Assays:
[1] = acute toxicity after oral administration to mice (LD50); settings: mouse, in vivo, 15 days mortality
Outline: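 Compounds suspended in 1% tragacanth gum mucilage given by intragastric probe to groups of three fasted male mice at 3,000 to 3 mg/kg or less. Mortality recorded over 15 days; LD50 (mg/kg) calculated by the Litchfield–Wilcoxon method. Behaviour observed up to 5–6 h and at 24 h.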

[2] = system: peripheral vascular α2 receptors; test: inhibition of the pressor effect of BHT 920 in pithed rats; assay type: in vivo, rat; settings: 1 mg/kg i.v., BHT 920 30 μg/kg i.v.
Procedure: The α2 antagonist activity of the compounds is evaluated by the inhibition of the pressor effect (blood pressure elevation), of a specific α2 agonist agent, 4H-Thiazolo[4,5-b]azetin-2-amine, 5,6,7,8-tetrahydro-6-(2-propenyl)-, dihydrochloride, designated as BHT 920 at a concentration of 30 μg/kg i.v.) according to a method described by J. C. Van Meel et al., J. Pharmacol. Exp. Ther., 219, 760-767 (1981).
The compound to be tested is administered at 1 mg/kg i.v. The ability of the compounds tested to antagonize the pressor effects of BHT 920 is determined and expressed as percentage of inhibition. Any direct hypertensive (=α2 agonist) activity of the compounds under test can likewise be detected.

[3] = system: α2 adrenergic receptors of the central nervous system; test: inhibition of the antihypertensive action of clonidine in spontaneously hypertensive rats (SHR); assay type: in vivo, rat; settings: 1 mg/kg p.o., clonidine 50 μg/kg s.c.
Procedure: In the first study, carried out upon unanaesthetized spontaneously hypertensive rats (SHR rats), the ability of the compounds of the present invention to inhibit the antihypertensive action of clonidine was determined.
The antihypertensive activity of clonidine results from an interaction with α2 adrenergic receptors of the central nervous system, i.e., central antihypertensive actions.
In this test, two groups of SHR rats are utilized as follows. In the first group, prior to subcutaneous administration of clonidine (50 μg/kg), the SHR rats are treated with the compound to be tested (1 mg/kg p.o.) dissolved in a saline vehicle. The second group (control group) of SHR rats are treated with the saline vehicle only, prior to subcutaneous administration of clonidine.
The arterial pressure is measured in the region of the median coccygeal artery according to the method of J. Roba, A. F. DeSchaepdrijver, Exp. Anim., 4, 147-162 (1971).
The results of this assay summarized in Table II, column 5, are expressed as a percentage of inhibition of the effect of clonidine.

[4] = system: 3-mercaptopropionic acid (3-MPA)-induced tonic extension in mice; test: protection against 3-mercaptopropionic acid (3-MPA)-induced tonic extension in mice; assay type: in vivo; settings: 100 mg/kg orally, 30 minutes prior to 3-MPA (120 mg/kg s.c.)
Procedure: In the second study the anti-convulsant effect of the compounds of the present invention was examined in two seizure models; bicuculline-induced tonic extension in mice and 3-mercaptopropionic acid (3-MPA)-induced tonic extension in mice.
In the bicuculline study, the ability of the compounds of the present invention to protect against tonic extension (involving rigidity) was evaluated as follows. Each test compound was administered to a group of ten mice at a dose of 10 mg/kg, 3 hours prior to the i.v. administration of bicuculline (0.7 mg/kg). Anticonvulsant activity in this test is expressed as percentage of animals tested. The results are given in Table II, column 6, and indicate that several compounds display significant anticonvulsive activity in this test. The anticonvulsant effect of the compounds has also been tested with respect to the tonic extension induced by 3-mercaptopropionic acid (120 mg/kg subcutaneously) in mice.
In the 3-MPA assay, the compounds of the present invention are administered orally at a dose of 100 mg/kg 30 minutes prior to administration of 3-MPA. Each compound was tested on a group of 5 mice; if more than 1 mouse was protected, a second group of 5 mice was tested.

[5] = system: clonidine-induced depression of locomotor activity and rearing activity; test: clonidine-induced depression of locomotor activity, open field test in mice; assay type: in vivo; settings: for minimal effective dose: Mus musculus, 2 hours prior to clonidine 0.3 mg/kg p.o.
Excerpt: The third in vivo study evaluation activity of the compounds of the invention on clonidine induced depression of locomotor activity. The previously-discussed study involving clonidine related to its α2 agonist effects on the brain's regulation of the cardiovascular system. The present study involved clonidine α2 agonist effects on central control of locomotor activity. Clonidine inhibits locomotor activity and rearing activity in the mouse. In this "open field" test, mice are pretreated with the compounds of the present invention at doses of 1 to 10 mg/kg p.o. […] Each compound was evaluated for its ability to antagonize the effect of clonidine. […] Compound No. 1 antagonizes clonidine-induced depression of locomotor activity and rearing activity from 1 mg/kg p.o. and from 3 mg/kg p.o., respectively. The effects of chronic administration of compound No. 1 were also evaluated in this test. In this study, groups of 5-6 mice were treated with compound No. 1 (3 mg/kg p.o.) either twice daily for 14 days (chronic) or with one single dose (acute).

[6] = system: 5-methoxy-N,N-dimethyltryptamine-induced head twitching (serotoninergic syndrome); test: head twitches induced by 5-methoxy-N,N-dimethyltryptamine in mice; assay type: in vivo
Excerpt: The fourth in vivo study evaluated activity of the compounds of the invention on serotonin agonist-induced head twitching (serotoninergic syndrome). The compound 5-methoxy-N,N-dimethyl tryptamine is a serotonin agonist which induces head twitching in mice. The activity of this tryptamine compound is increased by antidepressant drugs. This study evaluated the ability of the compounds of the present invention to influence the effect of the tryptamine-induced head twitching (E. Friedman, et al., Eur. J. Pharmacol., 89, 69-76, 1983).
The compounds to be tested were administered to mice at the dose of 3 mg/kg p.o. either acutely or chronically twice a day continually for 2 weeks. The increased head twitching caused by the tryptamine compound (2 mg/kg i.p.) was observed 1, 24 and 72 hours after the last administration of the test compound.

Row | Compound | LD50 at 360 h [1] [mg/kg] | α2 antagonist activity, inhibition of pressor effect of BHT 920 (in words) [2] | α2 Antagonist (% Inhibition of the Antihypertension of Clonidine) [3] [%] | anticonvulsant effect versus 3-MPA (in words) [4] | further results
1 | CC(c1c[nH]cn1)C(c1ccccc1)c1ccccc1 (stereo not drawn) [Compound 4] | > 300 | very active as α2 antagonist agents | 68 | – | –
2 | Cc1ccccc1C(Cc1c[nH]cn1)c1ccccc1 (stereo not drawn) [Compound 12] | 155 | very active as α2 antagonist agents | 78 | – | –
3 | Cc1cccc(C(Cc2c[nH]cn2)c2ccccc2)c1 (stereo not drawn) [Compound 9, 4(5)-{[2-(3-methylphenyl)-2-phenyl]ethyl}imidazole] | 155 | very active as α2 antagonist agents | 92 | – | –
4 | Fc1ccc(C(Cc2c[nH]cn2)c2ccccc2F)cc1 (stereo not drawn) [Compound 15, 4(5)-{[2-(2-fluorophenyl)-2-(4'-fluorophenyl)]ethyl}imidazole] | 155 | very active as α2 antagonist agents | 75 | – | –
5 | Cc1ccc(C(Cc2c[nH]cn2)c2ccccc2)cc1 (stereo not drawn) [Compound 21] | 350 | very active as α2 antagonist agents | 48 | – | –
6 | Fc1ccc(C(Cc2c[nH]cn2)c2ccccc2)cc1 (stereo not drawn) [Compound 14, 4(5)-{[2-(4-fluorophenyl)-2-phenyl]ethyl}imidazole] | 155 | very active as α2 antagonist agents | 82 | – | –
7 | c1ccc(C(Cc2c[nH]cn2)c2ccccc2)cc1 [Compound 1, 4(5)-(2,2-diphenylethyl)-imidazole] | 155 | very active as α2 antagonist agents | 50 | potent anticonvulsant effect | activity in the open field test after chronic administration (in words) ([5]; 3 mg/kg p.o. twice daily 14 days, clonidine 0.15 mg/kg i.p.): at the same level as after acute administration; also recorded: disappeared 24 hours after withdrawal of the drug; minimal effective dose ([5]; mice, read-out: active dose antagonizing clonidine-induced depression of locomotor activity): ≥ 1 mg/kg; minimal effective dose ([5]; mice, read-out: active dose antagonizing clonidine-induced depression of rearing activity): ≥ 3 mg/kg; % Inhibition of the Effect of Clonidine on Locomotor Activity in Mice ([5]; acute, 3 mg/kg p.o., 1 h after last administration, clonidine 0.15 mg/kg i.p.): 52%; % Inhibition of the Effect of Clonidine on Locomotor Activity in Mice ([5]; chronic, 3 mg/kg p.o. twice daily 14 days, 1 h after last administration, clonidine 0.15 mg/kg i.p.): 59%; % Inhibition of the Effect of Clonidine on Locomotor Activity in Mice ([5]; chronic, 3 mg/kg p.o. twice daily 14 days, 24 h after last administration, clonidine 0.15 mg/kg i.p.): 3%; % Inhibition of the Effect of Clonidine on Locomotor Activity in Mice ([5]; chronic, 3 mg/kg p.o. twice daily 14 days, 72 h after last administration, clonidine 0.15 mg/kg i.p.): 5%; accumulation of the compound after chronic administration (in words) ([5]; inferred from open field activity after withdrawal, 14 days twice daily): Accumulation of the compound does not appear to occur; activity in the open field test (in words) ([5]; mice, 1 to 10 mg/kg p.o., clonidine 0.3 mg/kg p.o.): particularly active; Head Twitches/5 Minutes, percent compared to the vehicle treated group ([6]; acute, 3 mg/kg p.o., 1 h after last treatment, tryptamine compound 2 mg/kg i.p.): 171%; Head Twitches/5 Minutes, percent compared to the vehicle treated group ([6]; chronic, 3 mg/kg p.o. twice a day 2 weeks, 1 h after last treatment): 278%; Head Twitches/5 Minutes, percent compared to the vehicle treated group ([6]; chronic, 3 mg/kg p.o. twice a day 2 weeks, 24 h after last treatment): 210%; Head Twitches/5 Minutes, percent compared to the vehicle treated group ([6]; chronic, 3 mg/kg p.o. twice a day 2 weeks, 72 h after last treatment): 211%
8 | Clc1ccccc1C(Cc1c[nH]cn1)c1ccccc1 (stereo not drawn) [Compound 13, 4(5)-{[2-(2-chlorophenyl)-2-phenyl]ethyl}imidazole] | 172 | very active as α2 antagonist agents | 46 | potent anticonvulsant effect | –
9 | Cc1ccc(C)c(C(Cc2c[nH]cn2)c2ccccc2)c1 (stereo not drawn) [Compound 16] | > 300 | – | 69 | potent anticonvulsant effect | –
10 | COc1ccc(C(Cc2c[nH]cn2)c2ccccc2)cc1 (stereo not drawn) [Compound 17, 4(5)-{[2-(4-methoxyphenyl)-2-phenyl]ethyl}imidazole] | 350 | very active as α2 antagonist agents | 26 | – | –
